The target in one test is T1, KRas G12C (Homo sapiens, UniProt P01116, G12C).
T1 construct: Biotinylated KRas (corresponding to amino acids 1-169, produced at Accelegan Inc.); biotin (biotinylated); purchased Accelegan Inc
Nature of the test: KRas binding assay, TR-FRET displacement of Cy5 labelled tracer. Conditions: 60-minute incubation at room temperature, 1% DMSO, pH 7.5. In a few lines:
(§1)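 TR-FRET tracer-displacement readout after 60 min at room temperature, using KRas residues 1-169 (biotinylated) with terbium streptavidin and a Cy5 tracer. Buffer: 50 mM HEPES pH 7.5, 5 mM MgCl2, 0.005% Tween-20, 1 mM DTT, 1% DMSO final. IC50 from 4-parameter fit of POC data.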

For the next test, the target named is T2, KRas G12S (Homo sapiens, UniProt P01116, G12S).
T2 construct: Biotinylated KRas (corresponding to amino acids 1-169, produced at Accelegan Inc.); biotin (biotinylated); purchased Accelegan Inc
T2 sequence (P01116 1-169 isoform P01116-2 G12S): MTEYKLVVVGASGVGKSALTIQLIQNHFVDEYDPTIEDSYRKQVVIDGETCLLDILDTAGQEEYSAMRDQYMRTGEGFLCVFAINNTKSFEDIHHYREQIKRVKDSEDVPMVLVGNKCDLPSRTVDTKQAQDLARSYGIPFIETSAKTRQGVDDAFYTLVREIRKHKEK
The description is as above. Conditions: 60-minute incubation at room temperature, 1% DMSO, pH 7.5. In a few lines: as §1

A further test addresses T3, KRas WT (Homo sapiens, UniProt P01116).
T3 construct: Biotinylated KRas (corresponding to amino acids 1-169, produced at Accelegan Inc.); biotin (biotinylated); purchased Accelegan Inc
Described as above. Conditions: 60-minute incubation at room temperature, 1% DMSO, pH 7.5. The essentials: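 Tb-streptavidin captured biotinylated KRas (1-169) in HEPES 50 mM, DTT 1 mM, MgCl2 5 mM, Tween-20 0.005% (pH 7.5), alongside tracer and compound at 1% final DMSO. One hour at RT, then read; IC50 from 4-parameter POC fit.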

For test [1], the target named is T4, KRas-mediated phosphorylation of ERK in MKN1 cells (Homo sapiens, UniProt P01116).
T4 construct: pERK HTRF read-out
T4 sequence (P01116 1-188 isoform P01116-2): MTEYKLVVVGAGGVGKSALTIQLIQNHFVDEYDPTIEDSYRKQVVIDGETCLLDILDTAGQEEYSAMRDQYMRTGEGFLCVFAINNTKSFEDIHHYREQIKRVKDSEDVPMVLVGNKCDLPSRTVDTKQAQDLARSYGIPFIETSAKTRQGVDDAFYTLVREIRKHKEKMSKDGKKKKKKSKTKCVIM
Nature of the test: Inhibition of KRas-mediated phosphorylation of ERK (HTRF), MKN1 cells. Type of test: cell-based. Particulars: MKN1 cells (KRas WT); HTRF pERK; 3 h incubation. The method, then: Inhibition of KRas Phosphorylation of ERK (HTRF) by Exemplary Compounds of Formula (Ia) or (Ib)
Cisbio HTRF Advanced pERK Assay Catalog #64AERPEH • Cells: MKN1, PSN1 • Procedure: • 1. Day 1: Seed 6,000 cells/well −25 μl/well in 384-well white solid bottom plate; RPM1_10% FBS. Incubate overnight at 37 °C/5% CO2. • 2.

Test [2] concerns the target T5, KRas-mediated phosphorylation of ERK in A549 cells (Homo sapiens, UniProt P01116, G12S).
T5 construct: pERK HTRF read-out
In words: Inhibition of KRas-mediated phosphorylation of ERK (HTRF), A549 cells. Particulars: HTRF pERK, 3 h incubation. Type of test: cell-based.

The target of test [3] is T6, KRas-mediated phosphorylation of ERK in H358 cells (Homo sapiens, UniProt P01116, G12C).
T6 construct: pERK HTRF read-out
T6 sequence (P01116 1-188 isoform P01116-2 G12C): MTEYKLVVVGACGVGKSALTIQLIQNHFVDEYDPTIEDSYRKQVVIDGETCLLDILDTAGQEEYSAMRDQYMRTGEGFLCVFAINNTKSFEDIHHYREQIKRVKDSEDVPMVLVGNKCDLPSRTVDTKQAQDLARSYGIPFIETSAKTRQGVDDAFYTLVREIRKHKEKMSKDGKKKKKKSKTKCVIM
Nature of the test: Inhibition of KRas-mediated phosphorylation of ERK (HTRF), H358 cells. Type of test: cell-based. Particulars: HTRF pERK, 3 h incubation.

T3 sequence (P01116 1-169 isoform P01116-2): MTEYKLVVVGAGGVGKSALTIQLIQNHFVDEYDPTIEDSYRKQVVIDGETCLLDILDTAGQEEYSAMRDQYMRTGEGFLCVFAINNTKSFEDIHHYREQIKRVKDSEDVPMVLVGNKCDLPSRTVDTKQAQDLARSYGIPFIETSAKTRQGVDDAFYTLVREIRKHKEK
T5 sequence (P01116 1-188 isoform P01116-2 G12S): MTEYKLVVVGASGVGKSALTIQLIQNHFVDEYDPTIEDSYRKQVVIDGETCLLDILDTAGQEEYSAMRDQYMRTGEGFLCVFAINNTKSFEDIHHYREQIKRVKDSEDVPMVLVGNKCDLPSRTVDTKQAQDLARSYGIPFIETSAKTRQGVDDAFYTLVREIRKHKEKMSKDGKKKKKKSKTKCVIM
T1 sequence (P01116 1-169 isoform P01116-2 G12C): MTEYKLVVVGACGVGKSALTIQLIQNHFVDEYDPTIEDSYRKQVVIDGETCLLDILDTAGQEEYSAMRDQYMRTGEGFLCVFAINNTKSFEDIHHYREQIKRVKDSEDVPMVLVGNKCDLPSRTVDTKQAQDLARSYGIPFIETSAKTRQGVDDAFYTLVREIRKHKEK

For `CC(=O)N(C)C(=O)CCCN(C)c1cc(O[C@@H](C)[C@@H]2CCCN2C)nc(-c2cc([C@]3(C)CCCc4sc(N)c(C#N)c43)sn2)n1` [Example 319, N-acetyl-4-((2-(5-((R)-2-amino-3-cyano-4-methyl-4,5,6,7-tetrahydrobenzo[b]thiophen-4-yl)isothiazol-3-yl)-6-((S)-1-((S)-1-methylpyrrolidin-2-yl)ethoxy)pyrimidin-4-yl)(methyl)amino)-N-methylbutanamide], the IC50 at KRas G12C was more than 100000 nM; on KRas G12S, more than 100000 nM; on KRas WT, more than 100000 nM; in test [1], more than 10000 nM; in test [2], more than 10000 nM; in test [3] it was more than 10000 nM.

Turning to `Cc1ccn(C(=O)CCN(C)c2cc(O[C@@H](C)[C@@H]3CCCN3C)nc(-c3noc([C@]4(C)CCCc5sc(N)c(C#N)c54)n3)n2)n1` [Example 320, (R)-2-amino-4-methyl-4-(3-(4-(methyl (3-(3-methyl-1H-pyrazol-1-yl)-3-oxopropyl)amino)-6-((S)-1-((S)-1-methylpyrrolidin-2-yl)ethoxy)pyrimidin-2-yl)-1,2,4-oxadiazol-5-yl)-4,5,6,7-tetrahydrobenzo[b]thiophene-3-carbonitrile], the IC50 was 131 nM on KRas G12C; 179 nM on KRas G12S; 264 nM on KRas WT; more than 10000 nM in test [1]; 621 nM in test [2]; more than 10000 nM in test [3].

In the case of `Cc1ccn(C(=O)CCNc2cc(-c3noc4c3CCC[C@@]43CCCc4sc(N)c(C#N)c43)nc(N3CCNC[C@@H]3C)n2)n1` [Example 321, (S)-2-amino-3′-(6-((3-(3-methyl-1H-pyrazol-1-yl)-3-oxopropyl)amino)-2-((S)-2-methylpiperazin-1-yl)pyrimidin-4-yl)-5′,6,6′,7-tetrahydro-4′H,5H-spiro[benzo[b]thiophene-4,7′-benzo[d]isoxazole]-3-carbonitrile], the IC50 came out at 14 nM on KRas G12C; 21 nM at KRas G12S; 28 nM at KRas WT; 861 nM in test [1]; 192 nM in test [2]; 1060 nM in test [3].

As to `Cc1ccn(C(=O)CCCN(C)c2cc(O[C@@H](C)[C@@H]3CCCN3C)nc(-c3noc([C@@]4(C)CCCc5sc(N)c(C#N)c54)n3)n2)n1` [Example 322, (S)-2-amino-4-methyl-4-(3-(4-(methyl (4-(3-methyl-1H-pyrazol-1-yl)-4-oxobutyl)amino)-6-((S)-1-((S)-1-methylpyrrolidin-2-yl)ethoxy)pyrimidin-2-yl)-1,2,4-oxadiazol-5-yl)-4,5,6,7-tetrahydrobenzo[b]thiophene-3-carbonitrile], the half-inhibitory concentration (IC50) on KRas G12C was 10 nM; at KRas G12S it was 20 nM; on KRas WT, 525 nM; in test [1] it was 7310 nM; in test [2] it was 96 nM; in test [3], 9590 nM.

Consider `Cc1ccn(C(=O)CCCN(C)c2cc(O[C@@H](C)[C@@H]3CCCN3C)nc(-c3cc([C@]4(C)CCCc5sc(N)c(C#N)c54)sn3)n2)n1` [Example 323, (R)-2-amino-4-methyl-4-(3-(4-(methyl (4-(3-methyl-1H-pyrazol-1-yl)-4-oxobutyl)amino)-6-((S)-1-((S)-1-methylpyrrolidin-2-yl)ethoxy)pyrimidin-2-yl)isothiazol-5-yl)-4,5,6,7-tetrahydrobenzo[b]thiophene-3-carbonitrile], for which the IC50 at KRas G12C amounted to 17 nM; at KRas G12S, 26 nM; at KRas WT it was 346 nM; in test [1], 1860 nM; in test [2], 140 nM; in test [3], 3330 nM.

In the case of `Cc1ccn(C(=O)CCCNc2cc(O[C@@H](C)[C@@H]3CCCN3C)nc(-c3noc([C@]4(C)CCCc5sc(N)c(C#N)c54)n3)n2)n1` [Example 324, (R)-2-amino-4-methyl-4-(3-(4-((4-(3-methyl-1H-pyrazol-1-yl)-4-oxobutyl)amino)-6-((S)-1-((S)-1-methylpyrrolidin-2-yl)ethoxy)pyrimidin-2-yl)-1,2,4-oxadiazol-5-yl)-4,5,6,7-tetrahydrobenzo[b]thiophene-3-carbonitrile], the IC50 is less than 2 nM at KRas G12C; less than 2 nM at KRas G12S; 19 nM on KRas WT; 651 nM in test [1]; 9 nM in test [2]; 262 nM in test [3].

(Values after patent US20260356856A1, “KRAS G12S AND G12C INHIBITORS” (MIRATI THERAPEUTICS, INC., priority 2023, published 2026).)
